{"source": "patent US20180071280A1", "about": "“MODULATORS OF CELL DEATH PROCESSES” (URIFER LTD., priority 2015, published 2018)", "key": {"[1]": {"tested_on": "su.86.86 (pancreatic cancer cells derived from metastatic site-liver)", "test": "Cytotoxicity dose response in su.86.86 cells", "format": "cell-based, human", "conditions": "24 h, 48 h, 72 h", "procedure": "Cell lines (HCT116, ht29, Rko, Hep3B, SW48, SW620, MDA-MB-231, PANC-1, su.86.86, Hfb) were obtained from the American Type Culture Collection (ATCC). Cell type authentication was carried out by microscope and DNA profiles using short tandem repeat analysis. Cells were grown in Minimum Essential Medium (MEM) containing 10% heat-inactivated Fetal Bovine Serum (FBS) or in Dulbecco's Modified Eagle's Medium (DMEM) containing 10% FBS, where specified, at 37° C. with 5% CO2. In general, the in-vitro experiments were carried out with 2. μM 0260 added into the growth medium. Dose response experiments included increasing 0260 concentrations. Cell death levels were determined using the MultiTox-Fluor Multiplex Cytotoxicity Assay (G9201, Promega, USA). In brief, 10,000 cells were seeded in black bottom 96 wells plate and were allowed to attach to the plate bottom for 16 h before the administration of various 0260 concentration in each well. Cell death levels were determined according to the manufacturer's protocol.\nCells death level was determined using the MultiTox-Fluor Multiplex Cytotoxicity Assay (G9201, Promega, USA) according to the manufacturer's protocol."}, "[2]": {"tested_on": "Hfb", "test": "Cellular ATP level (HPLC) in Hfb", "format": "cell-based, human", "conditions": "12 hours", "procedure": "Quantification of intracellular ATP was carried out using HPLC as previously described.\nCells were suspended in 400 μl cold 0.4M perchloric acid solution, incubated on ice for 15 min, centrifuged at 12,000×g, neutralized with 4M K2CO3 to pH 7.5, incubated for 15 min on ice and concentrated (10,000×g). Chromatographic analyses were performed using Hitachi Elite LaChrom system at 30° C. applying supernatants to SUPELCOSIL™ LC-18-S HPLC Column (5 μm particle size, L×I.D. 25 cm×2.1 mm), flow rate 0.2 mL/min under isocratic elution conditions (50 mM potassium phosphate, 100 mM triethylamine, pH 6.5 (adjusted with phosphoric acid)):Acetonitrile (98.5:1.5)). Each analysis cycle was set to 30 min, chromatographic flow was monitored at 260 nm and integrated using EZChrom Elite Software."}, "[3]": {"tested_on": "CC cells", "test": "Glycolysis rate (secreted lactate) in CC cells", "format": "cell-based, human", "conditions": "12 h", "procedure": "Cells were grown in MEM containing 1 gr/lit glucose or in DMEM with 4.5 gr/lit glucose. Secreted lactate levels were determined using Lactate Colorimetric Assay Kit II according to the manufacturer's protocol (Biovision, USA)."}, "[4]": {"test": "Pharmacokinetic study in mice", "format": "in vivo", "conditions": "IP", "procedure": "The investigation of PK properties of 0260 was carried out using 30 ICR/CD-1 mice. Intraperitoneal (IP) administration was used, and the solution was administered as 10 ml per 1 kg of animal body weight. At 5, 15, 30, 60, 120, and 240 min after administration (5 mice per each time point) mice were decapitated and blood samples were taken in EDTA-containing tubes. Plasma was prepared from the collected blood by centrifugation and then forwarded for LC-MS/MS analysis. A high sensitivity analytical method was developed for detection of 0260. Analysis was performed in the Agilent 1100 HPLC system including degasser, the binary pump, autosampler, and absorption detector with variable wavelength ranging between 190-600 nm. The HPLC system was coupled with the tandem mass spectrometer API 2000 (Applied Biosystems). The TurboIonSpray ion source was used in the positive ion mode. Data acquisition was performed with Analyst 1.3.1 software."}, "[5]": {"biological_target": "Fer (Homo sapiens, UniProt P16591)", "sequence (P16591 whole entry)": "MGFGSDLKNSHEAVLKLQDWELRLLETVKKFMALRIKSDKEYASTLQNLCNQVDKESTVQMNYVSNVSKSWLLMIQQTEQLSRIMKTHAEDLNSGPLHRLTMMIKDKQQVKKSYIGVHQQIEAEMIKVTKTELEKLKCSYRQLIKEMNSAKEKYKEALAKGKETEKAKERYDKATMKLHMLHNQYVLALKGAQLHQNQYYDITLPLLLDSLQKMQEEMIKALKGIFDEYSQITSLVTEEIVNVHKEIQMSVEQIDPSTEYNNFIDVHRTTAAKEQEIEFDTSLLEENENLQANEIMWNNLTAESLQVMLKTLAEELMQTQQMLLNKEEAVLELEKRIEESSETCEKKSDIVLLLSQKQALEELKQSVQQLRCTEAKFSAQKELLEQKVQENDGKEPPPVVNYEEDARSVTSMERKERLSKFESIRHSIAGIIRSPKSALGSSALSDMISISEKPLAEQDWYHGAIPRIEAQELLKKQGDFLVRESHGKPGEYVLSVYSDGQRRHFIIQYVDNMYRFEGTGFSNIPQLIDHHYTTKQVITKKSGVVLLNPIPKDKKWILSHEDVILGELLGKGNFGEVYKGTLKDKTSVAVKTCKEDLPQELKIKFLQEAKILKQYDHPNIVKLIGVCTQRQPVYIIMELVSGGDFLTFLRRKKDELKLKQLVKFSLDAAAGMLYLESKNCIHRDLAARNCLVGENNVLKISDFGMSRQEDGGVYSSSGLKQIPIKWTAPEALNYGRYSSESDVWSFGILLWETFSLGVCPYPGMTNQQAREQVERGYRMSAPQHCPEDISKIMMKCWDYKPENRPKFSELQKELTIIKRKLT", "test": "Fer autophosphorylation in RKO CC cells (IP/WB)", "format": "cell-based", "parameters": "endogenous in cells", "conditions": "24 h", "procedure": "WB analyses were carried out as previously described before. In brief, cells were lysed in RIPA buffer mixed with protease inhibitors and separated on SDS-PAGE gel, transferred to PVDF membrane treated with 5% skim milk to exclude non-specific background and incubated with a primary antibody over-night. The membrane was incubated for 1 h with a secondary antibody conjugated to Horseradish Peroxidase (HRP). The protein-antibody complex was visualized using the SuperSignal West Pico Chemiluminescent Substrate (Thermo scientific, USA).\nProtein lysates (1 mg) were prepared from tissues of adult mice according to previously described protocol, including incubation with Protein A Sepharose (GE Healthcare) to avoid nonspecific binding. Protein lysates were incubated with specific antibodies diluted 1:100 overnight at 4° C. Antigen-antibody complexes were precipitated with Protein A Sepharose, washed twice in PBS and eluted in Sample Buffer (2% SDS, 1% DTT 0.02% bromophenol blue 10% glycerol, 12.5 mM EDTA, 50 mM Tris-HCl pH 6.8) at room temperature for 10 min and at 100° C. for 8 min. Eluates were separated on SDS-PAGE and visualized by WB using specific antibodies."}}, "note": "Counter-ions that a name gives are not always drawn.", "data": [{"compound": "CC(C)c1ccc(-c2cn3nc(N4CCC(CN5CCN(C)CC5)CC4)sc3n2)cc1", "note": "[compound 0260, tartarate salt of 6-(4-isopropyl-phenyl)-2-{4-[(4-methyl-piperazin-1-yl)methyl]piperidin-1-yl}-imidazo [2,1-b][1,3,4]thiadiazole]", "values": [{"measurement": "sensitivity of Su.86.86 relative to PANC-1 cells", "setting": "[1]", "result": "more sensitive"}, {"measurement": "effect on cellular ATP level", "setting": "[2]", "result": "not seen"}, {"measurement": "additional acceleration of glycolytic rate", "setting": "[3]; high glucose concentration", "result": 30, "unit": "%"}, {"measurement": "elevation in the glycolytic rate", "setting": "[3]; high glucose concentration, total", "result": 65, "unit": "%"}, {"measurement": "acceleration of glycolytic rate", "setting": "[3]; low glucose", "result": 35, "unit": "%"}, {"measurement": "half-life", "setting": "[4]; ICR/CD-1, mouse, plasma, read-out: T1/2 in the blood", "result": 2.92, "unit": "h"}, {"measurement": "volume of distribution", "setting": "[4]", "result": 4.244, "unit": "L/kg"}, {"measurement": "Fer autophosphorylation level in cells", "setting": "[5]", "result": "inhibitory effect"}]}]}
